# Results: patent EP4722213A1, “NITROGEN-CONTAINING FUNCTIONAL GROUP-SUBSTITUTED PYRIDAZINOPYRIDONE DERIVATIVE AND USE THEREOF” (Sichuan Huiyu Pharmaceutical Co., Ltd., priority 2023, dated 2024)
# System: not listed separately
# Assay: Rat liver microsomal metabolic stability
# Assay type: in vitro ADME
# Conditions: rat liver microsomes, NADPH, 37°C
# Source text: Metabolic stability affects the clearance rate, half-life, and oral bioavailability of compounds in the body, and is one of the most important ADME drug-like properties of compounds. Hepatocyte microsomal stability assay is a commonly used method for studying metabolic stability. In the present disclosure, rat liver microsomes are used to determine and investigate the metabolic stability of compounds.
# Preparation of compound stock solution: an appropriate amount of the test compound and testosterone was taken, and a 1 mM stock solution was prepared with DMSO, which was stored in a refrigerator at 4°C.
# Preparation of compound working solution: The 1 mM compound stock solution was taken respectively, and then diluted to 100 µM with acetonitrile-water (v:v = 1:1) to obtain the working solution.
# Preparation of NADPH working solution: an appropriate amount of NADPH was weighed and dissolved in 16 mM MgCl2 to prepare a NADPH working solution with a concentration of 4.0 mM.
# Preparation of rat liver microsome working solution: an appropriate amount of rat liver microsomes was taken and diluted with PBS to obtain a liver microsome working solution with a concentration of 1 mg/mL.
# In the incubation system, 48 µL of PBS, 100 µL of rat liver microsome working solution, and 2 µL of the test compound working solution were sequentially added and mixed well. After pre-incubation at 37°C for 5 min, 50 µL of NADPH was added to initiate the reaction. After incubation for the corresponding time points, an appropriate amount of ice-cold acetonitrile containing an internal standard was added to terminate the reaction. The mixture was vortexed to mix well, centrifuged, and the supernatant was collected. The supernatant was injected into LC-MS/MS for detection of the residual metabolic amount of the compound.
# Softwares of Excel, etc. were used for data processing according to the following formula. Ct = C0 •e^(−ke •t) [formula] when Ct = (1)/(2)C0 [formula] , T1/2 = (Ln2)/(ke) = (0.693)/(ke) [formula] CLint(mic) = (0.693)/(In vitro T1/2)•(1)/(mg/mL microsomal protein in reaction system) [formula] CLint(liver) = CLint(mic) •(mg microsomes)/(g liver)•(g liver)/(kg body weight) [formula] CL(liver) = (CLint(liver)×fu×Qh)/(CLint(liver)×fu+Qh) [formula] fu (unbound fraction in blood) was defaulted to be 1.
row,Compound,half-life at 1 µM
1,"Cc1c([C@@H](C)Nc2nnc(N3CCC3)c3cc(=O)n(C4CC4)cc23)cccc1C(F)(F)F.O=CO [Example 50, (R)-1-(azetidin-1-yl)-6-cyclopropyl-4-((1-(2-methyl-3-(trifluoromethyl)phenyl)ethyl)amino)pyr ido[3,4-d]pyridazin-7(6H)-one formate]",2.18 h

# Same assay, conditions: rat liver microsomes, calculated from T1/2, fu defaulted to 1; read-out: CL(liver)
row,Compound,CLint scaled at 1 µM
1,"Cc1c([C@@H](C)Nc2nnc(N3CCC3)c3cc(=O)n(C4CC4)cc23)cccc1C(F)(F)F.O=CO [Example 50, (R)-1-(azetidin-1-yl)-6-cyclopropyl-4-((1-(2-methyl-3-(trifluoromethyl)phenyl)ethyl)amino)pyr ido[3,4-d]pyridazin-7(6H)-one formate]",14.2 mL/min/kg

# Biological target: T1, SOS1 (Homo sapiens, UniProt Q07889)
# T1 sequence (Q07889 1-1333): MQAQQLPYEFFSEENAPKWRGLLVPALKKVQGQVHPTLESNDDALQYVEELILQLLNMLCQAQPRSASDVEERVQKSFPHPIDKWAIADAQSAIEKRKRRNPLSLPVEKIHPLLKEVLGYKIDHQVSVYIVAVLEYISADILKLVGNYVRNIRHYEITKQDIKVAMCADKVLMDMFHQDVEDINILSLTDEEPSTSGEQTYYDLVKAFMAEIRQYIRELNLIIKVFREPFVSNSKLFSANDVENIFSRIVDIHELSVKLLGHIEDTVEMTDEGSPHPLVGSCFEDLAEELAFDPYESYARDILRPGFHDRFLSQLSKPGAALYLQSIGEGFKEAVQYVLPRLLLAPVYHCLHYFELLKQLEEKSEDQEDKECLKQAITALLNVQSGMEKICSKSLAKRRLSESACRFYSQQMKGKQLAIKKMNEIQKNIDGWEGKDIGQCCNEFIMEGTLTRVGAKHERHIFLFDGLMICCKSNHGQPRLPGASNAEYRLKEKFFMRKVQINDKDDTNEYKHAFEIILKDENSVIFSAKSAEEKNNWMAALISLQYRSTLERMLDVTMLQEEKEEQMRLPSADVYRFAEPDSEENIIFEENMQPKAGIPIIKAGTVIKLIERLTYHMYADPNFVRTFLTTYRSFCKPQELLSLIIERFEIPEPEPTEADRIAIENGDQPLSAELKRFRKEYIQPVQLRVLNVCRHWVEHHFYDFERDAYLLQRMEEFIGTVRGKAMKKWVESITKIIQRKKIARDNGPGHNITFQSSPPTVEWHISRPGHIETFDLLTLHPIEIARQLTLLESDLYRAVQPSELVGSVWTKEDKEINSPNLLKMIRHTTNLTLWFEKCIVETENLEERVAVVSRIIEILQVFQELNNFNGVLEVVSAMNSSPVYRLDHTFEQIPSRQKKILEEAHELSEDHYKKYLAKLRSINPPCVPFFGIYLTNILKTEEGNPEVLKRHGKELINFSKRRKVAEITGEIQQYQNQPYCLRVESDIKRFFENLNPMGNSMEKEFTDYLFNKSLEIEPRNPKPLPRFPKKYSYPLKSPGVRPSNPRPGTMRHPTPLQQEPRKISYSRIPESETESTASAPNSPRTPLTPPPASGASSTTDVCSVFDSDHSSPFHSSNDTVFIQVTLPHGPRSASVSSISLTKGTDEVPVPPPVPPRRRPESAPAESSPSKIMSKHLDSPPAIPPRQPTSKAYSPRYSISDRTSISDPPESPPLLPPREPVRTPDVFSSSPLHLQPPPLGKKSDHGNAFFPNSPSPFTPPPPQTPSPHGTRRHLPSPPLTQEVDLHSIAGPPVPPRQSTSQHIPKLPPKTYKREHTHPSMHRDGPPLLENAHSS
# Assay: biochemical
# Conditions: not given
row,Compound,IC50
1,"Cc1c([C@@H](C)Nc2nnc(N3CCC3)c3cc(=O)n(C4CC4)cc23)cccc1C(F)(F)F.O=CO [Example 50, (R)-1-(azetidin-1-yl)-6-cyclopropyl-4-((1-(2-methyl-3-(trifluoromethyl)phenyl)ethyl)amino)pyr ido[3,4-d]pyridazin-7(6H)-one formate]",5.8 nM
2,"Cc1c([C@@H](C)Nc2nnc(N3CC(F)(F)C3)c3cc(=O)n(C4(C)CC4)cc23)cccc1C(F)(F)F [Example 66, (R)-1-(3,3-difluoroazetidin-1-yl)-4-((1-(2-methyl-3-(trifluoromethyl)phenyl)ethyl)amino)-6-(1-methylcyclopropyl) pyrido[3,4-d]pyridazin-7(6H)-one]",30.9 nM
3,"Cc1c(C#N)cccc1[C@@H](C)Nc1nnc(N2CCC(F)(F)C2)c2cc(=O)n(C3CC3)cc12 [Example 42, (R)-3-(1-((6-cyclopropyl-1-(3,3-difluoropyrrolidin-1-yl)-7-oxo-6,7-dihydropyrido[3,4-d]pyridazin-4-yl)amino)ethyl)-2-methylbenzonitrile]",51.3 nM
4,"C[C@@H](Nc1nnc(N2CCN(C)CC2)c2cc(=O)n(C3CCN(C)CC3)cc12)c1cccc(C(F)F)c1F [Example 223, (R)-4-((1-(3-(difluoromethyl)-2-fluorophenyl)ethyl)amino)-1-(4-methylpiperazin-1-yl)-6-(1-methylpiperidin-4-yl)pyrido[3,4-d]pyridazin-7(6H)-one]",5.4 nM
5,"C[C@@H](Nc1nnc(N2CC(CO)C2)c2cc(=O)n(C3(C)CC3)cc12)c1cccc(C(F)F)c1F [Example 131, (R)-4-((1-(3-(difluoromethyl)-2-fluorophenyl)ethyl)amino)-1-(3-(hydroxymethyl)azetidin-1-yl)-6-(1-methylcyclopropyl) pyrido[3,4-d]pyridazin-7(6H)-one]",4.6 nM
6,"C[C@@H](Nc1nnc(-n2cccn2)c2cc(=O)n(C3CC3)cc12)c1cccc(C(F)F)c1F [Example 30, (R)-6-cyclopropyl-4-((1-(3-(difluoromethyl)-2-fluorophenyl)ethyl)amino)-1-(1H-pyrazol-1-yl) pyrido[3,4-d]pyridazin-7(6H)-one]",33.5 nM
7,"C[C@@H](Nc1nnc(N2CCN(CC3CC3)CC2)c2cc(=O)n(C3CC(F)(F)C3)cc12)c1cccc(C(F)F)c1F [Example 107, (R)-6-(3,3-difluorocyclobutyl)-4-((1-(3-(difluoromethyl)-2-fluorophenyl)ethyl)amino)-1-(4-(cyclopropylmethyl)piperazin-1-yl)pyrido[3,4-d]pyridazin-7(6H)-one]",4.2 nM
8,"Cc1c(C#N)cccc1[C@@H](C)Nc1nnc(N2CCN(C3CCC3)CC2)c2cc(=O)n(C3CC3)cc12 [Example 100, (R)-3-(1-((1-(4-cyclobutylpiperazin-1-yl)-6-cyclopropyl-7-oxo-6,7-dihydropyrido[3,4-d]pyridazin-4-yl)amino)ethyl)-2-methylbenzonitrile]",10.9 nM
9,"C[C@@H](Nc1nnc(N2CC3CC3C2)c2cc(=O)n(C3CC3)cc12)c1cccc(C(F)F)c1F (stereo partly drawn) [Example 18, 1-(3-azabicyclo[3.1.0]hexan-3-yl)-6-cyclopropyl-4-(((R)-1-(3-(difluoromethyl)-2-fluorophenyl)ethyl)amino)pyrido[3,4-d]pyridazin-7(6H)-one]",5.7 nM
10,"CCN(CC)c1nnc(N[C@H](C)c2cccc(C(F)(F)F)c2C)c2cn(C3(C)CC3)c(=O)cc12 [Example 60, (R)-1-(diethylamino)-4-((1-(2-methyl-3-(trifluoromethyl)phenyl)ethyl)amino)-6-(1-methylcyclopropyl) pyrido[3,4-d]pyridazin-7(6H)-one]",20.9 nM
11,"Cc1c([C@@H](C)Nc2nnc(N3CCSC3)c3cc(=O)n(C4CC4)cc23)cccc1C(F)(F)F [Example 57, (R)-6-cyclopropyl-4-((1-(2-methyl-3-(trifluoromethyl)phenyl)ethyl)amino)-1-(thiazolidin-3-yl)pyrido[3,4-d]pyridazin-7(6H)-one]",25.6 nM
12,"C[C@@H](Nc1nnc(N2CCOCC2)c2cc(=O)n(C3(C)CC3)cc12)c1cccc(C(F)F)c1F [Example 7, (R)-4-((1-(3-(difluoromethyl)-2-fluorophenyl)ethyl)amino)-6-(1-methylcyclopropyl)-1-morpholinopyrido[3 ,4-d]pyridazin-7(6H)-one]",17.7 nM
13,"C[C@@H](Nc1nnc(N2CCC3(CCC3)CC2)c2cc(=O)n(C3(C)CC3)cc12)c1cccc(C(F)F)c1F [Example 184, (R)-4-((1-(3-(difluoromethyl)-2-fluorophenyl)ethyl)amino)-6-(1-methylcyclopropyl)-1-(7-azaspiro[3.5]nonan-7-yl)pyrido[3,4-d]pyridazin-7(6H)-one]",40.2 nM
14,"Cc1c(C#N)cccc1[C@@H](C)Nc1nnc(N2CCC[C@H]2C)c2cc(=O)n(C3(C)CC3)cc12 [Example 85, 2-methyl-3-((R)-1-((6-(1-methylcyclopropyl)-1-((R)-2-methylpyrrolidin-1-yl)-7-oxo-6,7-dihydropyrido[3,4-d]pyridazin-4-yl)amino)ethyl)benzonitrile]",11.7 nM
15,"Cc1c(C#N)cccc1[C@@H](C)Nc1nnc(N(C)C)c2cc(=O)n(C3(C)CC3)cc12 [Example 84, (R)-3-(1-((1-(dimethylamino)-6-(1-methylcyclopropyl)-7-oxo-6,7-dihydropyrido[3,4-d]pyridazin-4-yl)amino)ethyl)-2-methylbenzonitrile]",18.7 nM
16,"Cc1c(C#N)cccc1[C@@H](C)Nc1nnc(N2CC[C@H](CO)C2)c2cc(=O)n(N3CC4CCCC4C3)cc12 (stereo partly drawn) [Example 166, 3-((1R)-1-((6-(hexahydrocyclopenta[c]pyrrol-2(1H)-yl)-1-((S)-3-(hydroxymethyl)pyrrolidin-1-yl)-7-oxo-6,7-dihydropyrido[3,4-d]pyridazin-4-yl)amino)ethyl)-2-methylbenzonitrile]",9.7 nM
17,"C[C@@H](Nc1nnc(N2CC(CO)C2)c2cc(=O)n(C3(C)CC3)cc12)c1cccc(C(F)(F)CO)c1 [Example 229, (R)-4-((1-(3-(1,1-difluoro-2-hydroxyethyl)phenyl)ethyl)amino)-1-(3-(hydroxymethyl)azetidin-1-yl)-6-(1-methylcyclopropyl) pyrido[3,4-d]pyridazin-7(6H)-one]",4.5 nM
18,"Cc1c(C#N)cccc1[C@@H](C)Nc1nnc(N2CC(F)(F)C2)c2cc(=O)n(C3CC3)cc12 [Example 41, (R)-3-(1-((6-cyclopropyl-1-(3,3-difluoroazetidin-1-yl)-7-oxo-6,7-dihydropyrido[3,4-d]pyridazin-4-yl)amino)ethyl)-2-methylbenzonitrile]",57.9 nM
